Data from publication PMC8957602 (Cancer chemotherapy and pharmacology, 2022).
Several values for one entry are separate records, joined by “and”; a condition that tells them apart may be missing. Equal values may be shown once. Read-outs that look alike come from different tables or passages of the source.

Legend:
[1] = tested on: CYP3A4; details: ref [31]; cited from earlier work
[2] = assay type: in vivo, human; details: despite increased exposure with acid reducer co-treatment
[3] = ref [11], cited from earlier work
[4] = adults with FLT3 mutant AML, ref [26], cited from earlier work
[5] = described as weak acid drug; cited from earlier work
[6] = tested on: human cytochrome CYP3A enzyme family; details: in vitro; ref unpublished in vitro data; cited from earlier work
[7] = ref [18], cited from earlier work
[8] = for AUC(0-t) / clearance: human, serum, oral; for AUC(0-t): 170 mg/m2, Steady state AUC0–24h, after 170 mg/m^2; for clearance: Mean clearance
[9] = before including any covariates
[10] = before inclusion of significant covariates
[11] = final model with covariates, Estimate (RSE%)
[12] = final model, standard deviation, Estimate (RSE%)
[13] = standard deviation, 500 bootstrap replicates

With CNC(=C[N+](=O)[O-])NCCSCc1ccc(CN(C)C)o1 [ranitidine] as the molecule, how does the CYP3A4 inhibition [1] read?
The CYP3A4 inhibition was “weak CYP3A4 inhibitors”.

With COc1ccc2[nH]c([S+]([O-])Cc3ncc(C)c(OC)c3C)nc2c1 (stereo not shown) [omeprazole] as the molecule, how does the CYP3A4 inhibition [1] read?
Its CYP3A4 inhibition is “weak CYP3A4 inhibitors”.

Which CYP3A4 inhibition [1] does the source give for COc1ccnc(C[S+]([O-])c2nc3ccc(OC(F)F)cc3[nH]2)c1OC (stereo not shown) [pantoprazole] here?
The CYP3A4 inhibition was “weak CYP3A4 inhibitors”.

Which results are given for CC1(COc2ccc3c(c2)ncn3-c2ccc3cccc(N4CCC(N)CC4)c3n2)COC1 [crenolanib]?
Tolerability of therapy [2]: well-tolerated; Terminal half-life ([3]; adults with solid tumors, 100–340 mg once daily, similar across all dose levels, [15]): 14 ± 4.2 h; Mean (CV%) steady state AUC0–72h ([3]; adults, 280 mg once daily (approx. 168 mg/m^2)): 25,928 (92%) h·nM; Tolerability ([3]; adults, 100–340 mg once daily, [15]): well tolerated; Mean clearance ([4]; similar between day 1 and day 15): ~ 60 L/h; Drug accumulation after repeated doses [4]: minimal drug accumulation; Terminal half-life [4]: 6.8 h; pKa [5]: ~ 9.8; Metabolizing enzyme [6]: primarily metabolized by human cytochrome CYP3A enzyme family; Maximum tolerated dosage ([7]; oral once daily): 170 mg/m^2/d; Association of higher AUC with toxicities [7]: not associated with more frequent or severe toxicities; AR coefficient on V1/F βAR-V, non-parametric bootstraps mean ([8]; 500 bootstrap replicates): −0.477; Absorption lag time Tlag, non-parametric bootstraps mean ([8]; 500 bootstrap replicates): 0.547 h; Absorption rate constant ka, non-parametric bootstraps mean ([8]; 500 bootstrap replicates): 0.192 h⁻¹; Age coefficient on ka βAge, non-parametric bootstraps mean ([8]; 500 bootstrap replicates): −0.0403; Central clearance CL/F, non-parametric bootstraps mean ([8]; 500 bootstrap replicates): 42.0 L/h; Central volume V1/F, non-parametric bootstraps mean ([8]; 500 bootstrap replicates): 54.0 L; Peripheral volume V2/F, non-parametric bootstraps mean ([8]; 500 bootstrap replicates): 194 L; Residual proportional error, non-parametric bootstraps mean ([8]; 500 bootstrap replicates): 0.306; CL/F population estimate [8, 9]: 20.4 L/h; Q/F population estimate [8, 9]: 4.47 L/h; Tlag population estimate [8, 9]: 0.59 h; V1/F population estimate [8, 9]: 34.6 L; V2/F population estimate [8, 9]: 316 L; ka population estimate [8, 9]: 0.13 h⁻¹; Inter-occasion variability of CL/F [8, 10]: 0.568; Inter-occasion variability of V1/F [8, 10]: 0.956; Absorption lag time Tlag, population estimate [8, 11]: 0.525 (14.4) h; Absorption rate constant ka, population estimate [8, 11]: 0.191 (10.4) /h; Peripheral volume V2/F, population estimate ([8]; final model, Estimate (RSE%)): 412 (86.7) L; Residual proportional error ([8]; final model, Estimate (RSE%)): 0.304 (4.44); AR coefficient on V1/F βAR-V ([8]; final model, acid reducer concomitant treatment, Estimate (RSE%)): −0.516 (42.3); Age coefficient on ka βAge ([8]; final model, exponential model, Estimate (RSE%)): −0.0404 (20.5); Inter-occasion variability (IOV) of absorption lag time Tlag [8, 12]: 0.645 (18.3); Inter-patient variability (IIV) of absorption lag time Tlag [8, 12]: 0.524 (27.7); Inter-patient variability (IIV) of peripheral clearance Q/F [8, 12]: 0.536 (20.2); Central volume V1/F, population estimate ([8]; final model, typical patient, no acid reducer, Estimate (RSE%)): 54.3 L and 54.3 (18.4) L; Lower V1/F in patients receiving concomitant acid reducers ([8]; histamine H2 antagonists or proton pump inhibitors, p=0.018): ~1.7 fold; AUC(0-t) ([8]; mean): 20.7 µM·h; AUC(0-t) ([8]; range): 9.48 to 68.5 µM·h; clearance ([8]; all patients): 642 mL/min; clearance ([8]; with acid reducers): 435 mL/min; clearance ([8]; without acid reducers): 980 mL/min; Accumulation at steady state ([8]; in vivo): minimal accumulation; IIV of absorption lag time Tlag, non-parametric bootstraps mean [8, 13]: 0.496; IIV of absorption rate constant ka, non-parametric bootstraps mean [8, 13]: 0.091; IIV of central volume V1/F, non-parametric bootstraps mean [8, 13]: 0.182; IOV of absorption lag time Tlag, non-parametric bootstraps mean [8, 13]: 0.591; IOV of central volume V1/F, non-parametric bootstraps mean [8, 13]: 0.860
